Experimental data from BindingDB's records for PubMed 34029774 (Dpsr University, 2021).

Key:
[1] = target: Prostaglandin G/H synthase 2 (Ovis aries); assay: Inhibition of ovine COX-2 colorimetric enzyme immunoassay
[2] = target: Prostaglandin G/H synthase 2 (Homo sapiens) (UniProt P35354); assay: Binding affinity to human recombinant COX-2 assessed as inhibition constant preincubated for 5 mins followed by arachidonic acid addition measured every 30 sec for 10 mins by fluorescence based assay
[3] = target: Prostaglandin G/H synthase 2 (Ovis aries); assay: Inhibition of ovine COX-2 using arachidonic acid as substrate measured after 2 mins by colorimetric enzyme immune assay
[4] = target: Prostaglandin G/H synthase 2 (Ovis aries); assay: Inhibition of ovine COX-2 by colorimetric inhibitor screening assay

Sequence of Prostaglandin G/H synthase 2 (Homo sapiens) (P35354 whole entry, looked up): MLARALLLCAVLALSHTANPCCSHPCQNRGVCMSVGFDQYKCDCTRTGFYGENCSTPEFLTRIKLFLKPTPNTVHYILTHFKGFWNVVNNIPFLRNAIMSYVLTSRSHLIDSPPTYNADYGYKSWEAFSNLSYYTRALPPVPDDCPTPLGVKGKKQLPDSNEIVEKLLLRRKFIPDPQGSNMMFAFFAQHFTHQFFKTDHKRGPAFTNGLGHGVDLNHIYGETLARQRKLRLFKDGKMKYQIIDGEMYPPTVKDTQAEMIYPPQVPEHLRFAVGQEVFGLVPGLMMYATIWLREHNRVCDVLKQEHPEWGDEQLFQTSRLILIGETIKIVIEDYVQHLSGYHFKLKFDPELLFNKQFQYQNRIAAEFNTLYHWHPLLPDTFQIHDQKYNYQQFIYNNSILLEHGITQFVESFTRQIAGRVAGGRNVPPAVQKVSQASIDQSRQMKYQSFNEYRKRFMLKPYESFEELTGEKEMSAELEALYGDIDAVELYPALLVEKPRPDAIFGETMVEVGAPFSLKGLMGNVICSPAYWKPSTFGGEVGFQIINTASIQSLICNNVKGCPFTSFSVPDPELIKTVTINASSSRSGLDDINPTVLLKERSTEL

Compound `COc1ccc2cc(C(C)C(=O)O/N=C(\N)c3ccc(OC)c(OC)c3)ccc2c1` (stereo unspecified) has an IC50 [1] of 6.4 nM.

`COc1ccc2cc(C(C)C(=O)O/N=C(\N)c3ccc(Cl)cc3)ccc2c1` (stereo unspecified) was tested, and the IC50 [1] was 7.2 nM.

`C=C(/C=C\C)/C(CSc1nnc(-c2cc(-c3ccc(OC)cc3)nc3ccccc23)n1-c1ccccc1)=N\O` gave a Ki [2] of 94600 nM.

`C/C(=N/Nc1ccc(C(=O)O)cc1)c1cccc(N2C(=O)c3ccccc3C2=O)c1` gave an IC50 [3] of 110 nM.

`COc1ccc(/C=C/C(=O)c2cccc(N3C(=O)c4ccccc4C3=O)c2)cc1OC` gave an IC50 [3] of 170 nM.

In the case of `CC1=C(CC(=O)Sc2ccccc2)c2cc(F)ccc2/C1=C\c1ccc([S+](C)[O-])cc1` (stereo unspecified), the IC50 [4] is reported as 1200 nM.
